Laboratory results published in patent publication US6706663B2, “Herbicidal 3-heterocyclic substituted benzisothiazole and benzisoxazole compounds” (Wyeth, priority 2000, dated 2004).

Columns and labels:
[1] = system: AMBEL (Ambrosia artemisifolia); experiment: Preemergence herbicidal evaluation; type: in vivo, L.; conditions: Rate 0.2500 kg/ha, rated 4-5 weeks after treatment
Text: (§1) Results of herbicide evaluation are expressed on a rating scale (0-9). The scale is based upon a visual observation of plant stand, vigor, malformation, size, chlorosis and overall plant appearance as compared with a control.
(§2) The preemergence herbicidal activity of the test compounds of the present invention is exemplified by the following tests in which the seeds of a variety of monocotyledonous and dicotyledonous plants are separately mixed with potting soil and planted on top of approximately one inch of soil in separate pint cups. […] The treated cups are then placed on greenhouse benches, watered and cared for in accordance with conventional greenhouse procedures. From four to five weeks after treatment, the tests are terminated and each cup is examined and rated according to the rating system provided in Example 87. The plant species used and the compounds evaluated are the same as those shown in Example 87.

[2] = system: CHEAL (Chenopodium album); experiment: Preemergence herbicidal evaluation; type: in vivo, L.; conditions: Rate 0.2500 kg/ha, rated 4-5 weeks after treatment
Text: as §1, §2

[3] = system: CASOB (Cassia obtusifolia); experiment: Preemergence herbicidal evaluation; type: in vivo, L.; conditions: Rate 0.2500 kg/ha, rated 4-5 weeks after treatment
Text: as §1, §2

ORYSAT (Rice, Tebonnet) [4] = experiment: Postemergence herbicidal evaluation; type: in vivo, Oryza sativa, (L.) Tebonnet; conditions: rate 0.0620 kg/ha
Method: (§3) In the tests, seedling plants are grown in jiffy flats for about two weeks. […] After spraying, the plants are placed on greenhouse benches and are cared for in accordance with conventional greenhouse procedures. From four to five weeks after treatment, the seedling plants are examined and rated according to the rating system set forth below. Where more than one test is involved for a given compound, the data are averaged.
as §1

[5] = system: ECHCG (Echinochloa crus-galli); experiment: Postemergence herbicidal evaluation; type: in vivo, (L.) Beau; conditions: rate 0.0620 kg/ha
Method: as §3, §1

[6] = system: IPOHE (Ipomoea hederacea); experiment: Postemergence herbicidal evaluation; type: in vivo, (L.) Jacq.; conditions: rate 0.0620 kg/ha
Method: as §3, §1

ZEAMX (Corn, Field) [7] = experiment: Preemergence herbicidal evaluation; type: in vivo, Zea mays, L.; conditions: Rate 0.2500 kg/ha, rated 4-5 weeks after treatment
Text: as §1, §2

[8] = system: TRZAWR (Wheat, Winter, cv Riband); experiment: Postemergence herbicidal evaluation; type: in vivo, Triticum aestivum; conditions: rate 0.0620 kg/ha
Method: as §3, §1

GALAP (Galium aparine) [9] = experiment: Preemergence herbicidal evaluation; type: in vivo; conditions: Rate 0.2500 kg/ha, rated 4-5 weeks after treatment
Text: as §1, §2

CYPIR (Cyperus iria) = experiment: Flooded paddy, preemergence weed control; type: in vivo; conditions: rate 0.1250 kg/ha, rated 3-4 weeks after treatment, 0-9 rating scale
Method: as §1
(§4) Preemergence herbicidal activity under flooded paddy conditions is determined as follows: plant seeds or propagating organs are planted in the top 0.5 cm of silt loam soil in 32 oz. plastic containers with a diameter of 10.5 cm and no drainage holes. Water is added to these containers and maintained at 1.5 to 3 cm above the soil surface for the duration of the experiment. […] The treated containers are placed on greenhouse benches and cared for in accordance with conventional greenhouse procedures.

SETVI (Setaria viridis) [10] = experiment: Preemergence herbicidal evaluation; type: in vivo, (L.) Beau; conditions: Rate 0.2500 kg/ha, rated 4-5 weeks after treatment
Text: as §1, §2

[11] = system: ECHCG (Echinochloa crus-galli); experiment: Preemergence herbicidal evaluation; type: in vivo, (L.) Beau; conditions: Rate 0.2500 kg/ha, rated 4-5 weeks after treatment
Text: as §1, §2

SETVI (Setaria viridis) [12] = experiment: Postemergence herbicidal evaluation; type: in vivo, (L.) Beau; conditions: rate 0.0620 kg/ha
Method: In the tests, seedling plants are grown in jiffy flats for about two weeks. The test compounds are dispersed in 50/50 acetone/water mixtures containing 0.5% TWEEN® 20, a polyoxyethylene sorbitan monolaurate surfactant of Atlas Chemical Industries, in sufficient quantities to provide the equivalent of about 0.0040 kg to 1.000 kg per hectare of active compound when applied to the plants through a spray nozzle operating at 40 psi for a predetermined time. After spraying, the plants are placed on greenhouse benches and are cared for in accordance with conventional greenhouse procedures. From four to five weeks after treatment, the seedling plants are examined and rated according to the rating system set forth below. Where more than one test is involved for a given compound, the data are averaged.
as §1

[13] = system: SAGPY (Sagittaria pygmaea); experiment: Flooded paddy, preemergence weed control; type: in vivo, L.; conditions: rate 0.1250 kg/ha, rated 3-4 weeks after treatment, 0-9 rating scale
Method: as §1, §4

GALAP (Galium aparine) [14] = experiment: Postemergence herbicidal evaluation; type: in vivo; conditions: rate 0.0620 kg/ha
Method: as §3, §1

[15] = system: TRZAWR (Wheat, Winter, cv Riband); experiment: Preemergence herbicidal evaluation; type: in vivo, Triticum aestivum; conditions: Rate 0.2500 kg/ha, rated 4-5 weeks after treatment
Text: as §1, §2

[16] = system: GLXMAW (Soybean, Williams); experiment: Preemergence herbicidal evaluation; type: in vivo, Glycine max, (L.) Merr. cv Williams; conditions: Rate 0.2500 kg/ha, rated 4-5 weeks after treatment
Text: as §1, §2

[17] = system: ECHORC (Echinochloa oryzoides); experiment: Flooded paddy, preemergence weed control; type: in vivo, Echinochloa oryzoides (Ard.) Fritsch.; conditions: rate 0.1250 kg/ha, rated 3-4 weeks after treatment, 0-9 rating scale
Method: as §1, §4

ZEAMX (Corn, Field) [18] = experiment: Postemergence herbicidal evaluation; type: in vivo, Zea mays, L.; conditions: rate 0.0620 kg/ha
Method: as §3, §1

[19] = system: AMBEL (Ambrosia artemisifolia); experiment: Postemergence herbicidal evaluation; type: in vivo, L.; conditions: rate 0.0620 kg/ha
Method: as §3, §1

[20] = system: CASOB (Cassia obtusifolia); experiment: Postemergence herbicidal evaluation; type: in vivo, L.; conditions: rate 0.0620 kg/ha
Method: as §3, §1

ORYSAT (Rice, Tebonnet) [21] = experiment: Preemergence herbicidal evaluation; type: in vivo, Oryza sativa, (L.) Tebonnet; conditions: Rate 0.2500 kg/ha, rated 4-5 weeks after treatment
Text: as §1, §2

[22] = system: ABUTH (Abutilon theophrasti); experiment: Preemergence herbicidal evaluation; type: in vivo, Medic.; conditions: Rate 0.2500 kg/ha, rated 4-5 weeks after treatment
Text: as §1, §2

ORYSAT (Rice, Tebonnet) [23] = experiment: Flooded paddy, post-transplant rice tolerance; type: in vivo, Oryza sativa, (L.) Tebonnet
Method: as §1
The tolerance of transplanted rice to post-transplanted herbicide application is determined as follows: two ten-day-old rice seedlings (cv. Tebonnet) are transplanted into silt loam soil in 32 oz. plastic containers with a diameter of 10.5 cm and no drainage holes. After transplanting, the containers are flooded and the water level is maintained at 1.5 to 3 cm above the soil surface. […] The treated containers are placed on greenhouse benches, watered such that the water level is maintained as stated above, and cared for in accordance with conventional greenhouse procedures.

[24] = system: ABUTH (Abutilon theophrasti); experiment: Postemergence herbicidal evaluation; type: in vivo, Medic.; conditions: rate 0.0620 kg/ha
Method: as §3, §1

[25] = system: IPOHE (Ipomoea hederacea); experiment: Preemergence herbicidal evaluation; type: in vivo, (L.) Jacq.; conditions: Rate 0.2500 kg/ha, rated 4-5 weeks after treatment
Text: as §1, §2

[26] = system: GLXMAW (Soybean, Williams); experiment: Postemergence herbicidal evaluation; type: in vivo, Glycine max, (L.) Merr. cv Williams; conditions: rate 0.0620 kg/ha
Method: as §3, §1

[27] = system: CYPSE (Cyperus serotinus); experiment: Flooded paddy, preemergence weed control; type: in vivo, Rottb.; conditions: rate 0.1250 kg/ha, rated 3-4 weeks after treatment, 0-9 rating scale
Method: as §1
Preemergence herbicidal activity under flooded paddy conditions is determined as follows: plant seeds or propagating organs are planted in the top 0.5 cm of silt loam soil in 32 oz. plastic containers with a diameter of 10.5 cm and no drainage holes. Water is added to these containers and maintained at 1.5 to 3 cm above the soil surface for the duration of the experiment. The test compounds are applied as aqueous/acetone mixtures 50/50 v/v pipetted directly into the flood water to give the equivalent of about 0.0080 to 0.1250 kg/ha of active ingredient. The treated containers are placed on greenhouse benches and cared for in accordance with conventional greenhouse procedures. Three to four weeks after treatment, the test is terminated and each container is examined and herbicidal effect rated according to the rating system provided in Example 87.

[28] = system: MOOVA (Monochoria vaginalis); experiment: Flooded paddy, preemergence weed control; type: in vivo, Presl.; conditions: rate 0.1250 kg/ha, rated 3-4 weeks after treatment, 0-9 rating scale
Method: as §1, §4

[29] = system: CHEAL (Chenopodium album); experiment: Postemergence herbicidal evaluation; type: in vivo, L.; conditions: postemergence, rate 0.0620 kg/ha
Method: as §3, §1

## Cn1c(C(F)(F)F)cc(=O)n(-c2ccc3c(c2)C(c2cccc[n+]2[O-])=NS3(=O)=O)c1=O [Compound 15, 1-methyl-3-[3-(2-pyridyl)-1,2-benzisothiazol-5-yl]-6-(trifluoromethyl)uracil N′,S,S-trioxide]
[1]; preemergence
  AMBEL preemergence herbicidal rating: 7.0
[2]; preemergence
  CHEAL preemergence herbicidal rating: 9.0
[3]; preemergence
  CASOB preemergence herbicidal rating: 0.0
ORYSAT (Rice, Tebonnet) [4]
  Postemergence herbicidal rating, ORYSAT: 3.5
[5]
  Postemergence herbicidal rating, ECHCG: 1.0
[6]
  Postemergence herbicidal rating, IPOHE: 9.0
ZEAMX (Corn, Field) [7]; preemergence
  ZEAMX preemergence herbicidal rating: 1.0
[8]
  Postemergence herbicidal rating, TRZAWR: 3.5
GALAP (Galium aparine) [9]; preemergence
  GALAP preemergence herbicidal rating: 0.0
CYPIR (Cyperus iria)
  herbicidal rating, CYPIR: 0.0
SETVI (Setaria viridis) [10]; preemergence
  SETVI preemergence herbicidal rating: 5.0
[11]; preemergence
  ECHCG preemergence herbicidal rating: 5.0
SETVI (Setaria viridis) [12]
  Postemergence herbicidal rating, SETVI: 1.0
[13]
  herbicidal rating, SAGPY: 0.0
GALAP (Galium aparine) [14]
  Postemergence herbicidal rating, GALAP: 1.0
[15]; preemergence
  TRZAWR preemergence herbicidal rating: 3.0
[16]; preemergence
  GLXMAW preemergence herbicidal rating: 2.0
[17]
  herbicidal rating, ECHORC: 0.0
ZEAMX (Corn, Field) [18]
  Postemergence herbicidal rating, ZEAMX: 5.0
[19]
  Postemergence herbicidal rating, AMBEL: 9.0
[20]
  Postemergence herbicidal rating, CASOB: 1.0
ORYSAT (Rice, Tebonnet) [21]; preemergence
  ORYSAT preemergence herbicidal rating: 3.0
[22]; preemergence
  ABUTH preemergence herbicidal rating: 7.0
ORYSAT (Rice, Tebonnet) [23]; in vivo
  herbicidal rating, ORYSAT (rice tolerance): 0.0
[24]
  Postemergence herbicidal rating, ABUTH: 6.0
[25]; preemergence
  IPOHE preemergence herbicidal rating: 6.0
[26]
  Postemergence herbicidal rating, GLXMAW: 5.0
[27]
  herbicidal rating, CYPSE: 0.0

## Cn1c(C(F)(F)F)cc(=O)n(-c2ccc3snc(C4OCC(CBr)O4)c3c2)c1=O (stereo not drawn) [Compound 79, 3-[3-[4-(bromomethyl)-1,3-dioxolan-2-yl]-1,2-benzisothiazol-5-yl]-1-methyl-6-(trifluoromethyl)uracil]
[1]
  Preemergence herbicidal rating AMBEL: 9.0
[2]
  Preemergence herbicidal rating CHEAL: 9.0
[3]
  Preemergence herbicidal rating CASOB: 9.0
ORYSAT (Rice, Tebonnet) [4]; postemergence
  ORYSAT herbicidal rating: 3.5
[5]; postemergence
  ECHCG herbicidal rating: 4.0
[6]; postemergence
  IPOHE herbicidal rating: 8.0
ZEAMX (Corn, Field) [7]
  Preemergence herbicidal rating ZEAMX: 7.0
[8]; postemergence
  TRZAWR herbicidal rating: 2.5
GALAP (Galium aparine) [9]
  Preemergence herbicidal rating GALAP: 9.0
CYPIR (Cyperus iria)
  herbicidal rating, CYPIR: 9.0
SETVI (Setaria viridis) [10]
  Preemergence herbicidal rating SETVI: 9.0
[11]
  Preemergence herbicidal rating ECHCG: 9.0
[28]
  herbicidal rating, MOOVA: 9.0
SETVI (Setaria viridis) [12]; postemergence
  SETVI herbicidal rating: 6.0
[13]
  herbicidal rating, SAGPY: 3.0
GALAP (Galium aparine) [14]; postemergence
  GALAP herbicidal rating: 4.0
[15]
  Preemergence herbicidal rating TRZAWR: 8.0
[16]
  Preemergence herbicidal rating GLXMAW: 9.0
[17]
  herbicidal rating, ECHORC: 9.0
ZEAMX (Corn, Field) [18]; postemergence
  ZEAMX herbicidal rating: 3.5
[19]; postemergence
  AMBEL herbicidal rating: 9.0
[29]
  CHEAL herbicidal rating: 9.0
[20]; postemergence
  CASOB herbicidal rating: 6.0
ORYSAT (Rice, Tebonnet) [21]
  Preemergence herbicidal rating ORYSAT: 8.0
[22]
  Preemergence herbicidal rating ABUTH: 9.0
ORYSAT (Rice, Tebonnet) [23]; flooded paddy, post-transplant rice, rate 0.1250 kg/ha, rated 3-4 weeks after treatment, 0-9 rating scale
  herbicidal rating, ORYSAT (rice tolerance): 7.0
[24]; postemergence
  ABUTH herbicidal rating: 9.0
[25]
  Preemergence herbicidal rating IPOHE: 7.0
[26]; postemergence
  GLXMAW herbicidal rating: 6.0
